The first experiment addresses T1, CCXCKR2 receptor (Homo sapiens, UniProt P25106).
T1 construct: expressed in transfected cells; host or cells: MDA-MB-435S transfected with pcDNA3.1(+)-hRDC1 and/or MCF-7 (endogenous receptor)
Briefly: Displacement of 125I-labeled SDF-1 from the CCXCKR2 receptor on MCF-7 and/or CCXCKR2-transfected MDA-MB-435S cells (radioligand binding, filtration).
Details: not given
T1 sequence (P25106 whole entry): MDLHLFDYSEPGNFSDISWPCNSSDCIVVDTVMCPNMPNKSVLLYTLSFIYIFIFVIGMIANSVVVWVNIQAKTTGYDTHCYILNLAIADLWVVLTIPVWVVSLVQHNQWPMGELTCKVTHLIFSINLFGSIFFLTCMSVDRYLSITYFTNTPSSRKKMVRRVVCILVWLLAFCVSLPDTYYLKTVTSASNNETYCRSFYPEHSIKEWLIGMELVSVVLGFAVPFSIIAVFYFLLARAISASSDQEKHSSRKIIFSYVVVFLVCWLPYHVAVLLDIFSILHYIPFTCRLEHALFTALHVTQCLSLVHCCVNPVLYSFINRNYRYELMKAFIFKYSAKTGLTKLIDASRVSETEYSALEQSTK
`Cc1cccc(Cn2cc(C(=O)c3ccc(C)c(C)c3)c(=O)c3ccccc32)c1` [Example 9] gave an IC50 of under 100 nM.

For the compound `Cc1ccc(C(=O)c2cn(CC3CCCCC3)c3ccccc3c2=O)cc1C` [Example 39], the IC50 was under 100 nM.

The experiment is the same for the next values; noted with them: 125I SDF-1, 3 hr at 4° C., MCF-7 and/or MDA-MB-435S cells; read-out: Activity (concentration displacing at least 50% of the SDF-1 from the CCXCKR2 receptor).
Regarding `CCc1ccc(C(=O)c2cn(Cc3cccc(C)n3)c3ccccc3c2=O)cn1` [Example 212], the IC50 was under 100 nM.

On to `Cc1ccc(C(=O)c2cn(Cc3cccc(C#N)n3)c3ccccc3c2=O)nc1C` [Example 80], for which the IC50 was under 100 nM.

Take `O=C(c1ccc2c(c1)OCCO2)c1cn(Cc2cccc(Br)n2)c2ccccc2c1=O` [Example 113]: the IC50 was under 100 nM.

With `Cc1ccc(C(=O)c2cn(Cc3ccccn3)c3ccccc3c2=O)cc1C` [Example 8], the IC50 was under 100 nM.

Turning to `CNc1cccc(Cn2cc(C(=O)c3ccc(C)c(C)c3)c(=O)c3ccccc32)n1` [Example 93], the IC50 was under 100 nM.

As for `O=C(c1ccc2c(c1)CCO2)c1cn(Cc2cccc(Br)n2)c2ccccc2c1=O` [Example 131], the IC50 was under 100 nM.

For the compound `Cc1ncc(C(=O)c2cn(Cc3cccc(Br)n3)c3ccccc3c2=O)n1C` [Example 152], the IC50 is 500 to 20000 nM.

In the case of `CN(C)c1ccc(C(=O)c2cn(Cc3cccc(Cl)c3)c3ccccc3c2=O)cn1` [Example 245], the IC50 was under 100 nM.

For `COc1ccc(C(=O)c2cn(Cc3cncc(C)n3)c3ccccc3c2=O)cc1F` [Example 225], the IC50 is under 100 nM.

Take `Cc1ccc(C(=O)c2cn(Cc3cccc(S(C)(=O)=O)n3)c3ccccc3c2=O)cc1C` [Example 78]: the IC50 was 100 to 500 nM.

`O=C(c1ccc(C(F)(F)F)nc1)c1cn(Cc2cccc(Br)c2)c2ccccc2c1=O` [Example 224]: the IC50 fell in the range of 500 to 20000 nM.

As to `Cc1cc(C)cc(C(=O)c2cn(Cc3cccc(Br)n3)c3ccccc3c2=O)c1` [Example 104], the IC50 was under 100 nM.

As for `O=C(c1ccc2c(c1)OCCO2)c1cn(Cc2cccc(C(F)(F)F)c2)c2ccccc2c1=O` [Example 232], the IC50 lay within 100 to 500 nM.

Regarding `Cc1cc(C(=O)c2cn(Cc3cccc(N)n3)c3ccccc3c2=O)cnc1C` [Example 91], the IC50 is under 100 nM.

`Cc1ccc(C(=O)c2cn(CCc3ccccc3)c3ccccc3c2=O)cc1C` [Example 27, 3-(3,4-Dimethyl-benzoyl)-1-phenethyl-1H-quinolin-4-one]: the IC50 was in the range of 500 to 20000 nM.

`CC(=O)Nc1cccc(Cn2cc(C(=O)c3ccc(C)c(C)c3)c(=O)c3ccccc32)n1` [Example 52]: the IC50 was in the range of 100 to 500 nM.

`COc1ccc(C(=O)c2cn(Cc3cccc(C)n3)c3ccccc3c2=O)cc1C` [Example 156]: the IC50 was under 100 nM.

Turning to `O=C(c1ccc(Cl)s1)c1cn(Cc2cccc(Br)n2)c2ccccc2c1=O` [Example 187], the IC50 is under 100 nM.

With `Cc1ccc(C(=O)c2cn(Cc3cccc(N)n3)c3ccccc3c2=O)nc1C` [Example 90], the IC50 was under 100 nM.

Regarding `Cc1ccc(C(=O)c2cn(Cc3ccccn3)c3cc4c(cc3c2=O)OCO4)cc1C` [Example 1], the IC50 lay in the range of 100 to 500 nM.

Consider `O=C(c1ccc(C(F)(F)F)nc1)c1cn(Cc2cccc(Br)n2)c2ccccc2c1=O` [Example 133], for which the IC50 was under 100 nM.

With `COc1ccc(C(=O)c2cn(Cc3cccc(Br)c3)c3ccccc3c2=O)cn1` [Example 239], the IC50 lay in the range of 100 to 500 nM.

Regarding `COc1cccc(Cn2cc(C(=O)c3ccc(C)c(C)c3)c(=O)c3ccccc32)n1` [Example 69], the IC50 was under 100 nM.

On to `COc1ccc(C(=O)c2cn(Cc3cccc(C#N)n3)c3ccccc3c2=O)cc1C` [Example 207], for which the IC50 was under 100 nM.

In the case of `COc1ccc(C(=O)c2cn(Cc3cccc(C(F)(F)F)n3)c3ncccc3c2=O)cc1C` [Example 195], the IC50 is under 100 nM.

`COc1ccc(C(=O)c2cn(Cc3cccc(C)n3)c3nc(C)c(C)cc3c2=O)cc1F` [Example 199]: the IC50 lay in the range of 500 to 20000 nM.

For the compound `COc1ccc(C(=O)c2cn(Cc3cccc(Br)n3)c3ccccc3c2=O)cc1C(=O)N(C)C` [Example 181], the IC50 was 500 to 20000 nM.

Turning to `Cc1ccc(C(=O)c2cn(Cc3cccc(Br)n3)c3nc(C)c(C)cc3c2=O)cc1C` [Example 159], the IC50 was under 100 nM.

The record behind these values is patent US7557213B2, “Substituted quinolones and methods of use” (ChemoCentryx, Inc., priority 2005, dated 2009).
